# Reference: patent US8952024B2, “Herbicidal pyrimidone derivatives” (E I du Pont de Nemours and Company, priority 2009, dated 2015)
# Columns and labels:
# Format in all cases: in vivo
# [1] = system: barnyardgrass (Echinochloa crus-galli); assay: Test A pre-/postemergence plant response
# How it was run: (§1)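 Visually rated 0–100 injury (100 = complete control) versus untreated plants, ~10 days in greenhouse. Application pre- (soil spray, loam/sand) and postemergence (2–10 cm, 1–2 leaf stage), same timepoint.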
# [2] = system: velvetleaf (Abutilon theophrasti); assay: Test A pre-/postemergence plant response
# How it was run: as §1
# [3] = system: giant foxtail (Setaria faberii); assay: Test A pre-/postemergence plant response
# How it was run: as §1
# [4] = system: wheat (Triticum aestivum); assay: Test A pre-/postemergence plant response
# How it was run: as §1
# [5] = system: pigweed (Amaranthus retroflexus); assay: Test A pre-/postemergence plant response
# How it was run: as §1
# [6] = system: corn (Zea mays); assay: Test A pre-/postemergence plant response
# How it was run: as §1
# [7] = system: large crabgrass (Digitaria sanguinalis); assay: Test A pre-/postemergence plant response
# How it was run: as §1
# [8] = system: morningglory (Ipomoea spp.); assay: Test A pre-/postemergence plant response
# How it was run: as §1
# [9] = system: rice (Oryza sativa); assay: Test B flooded paddy test; conditions: for Plant response rating, Rice: Flood (flooded paddy test), 13 to 15 days
# How it was run: (§2)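 Plants were grown to the 2-leaf stage, then pots were flooded to 3 cm above the soil and compounds were applied directly into the paddy water. That depth was held throughout. After 13 to 15 days in a greenhouse, injury was visually rated against controls on a 0–100 scale.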
# [10] = system: barnyardgrass (Echinochloa crus-galli); assay: Test B flooded paddy test; conditions: for Plant response rating, Barnyardgrass: Flood (flooded paddy test), 13 to 15 days
# How it was run: as §2
# [11] = system: ducksalad (Heteranthera limosa); assay: Test B flooded paddy test; conditions: for Plant response rating, Ducksalad: Flood (flooded paddy test), 13 to 15 days
# How it was run: as §2
# [12] = system: umbrella sedge (Cyperus difformis); assay: Test B flooded paddy test; conditions: for Plant response rating, Sedge, Umbrella: Flood (flooded paddy test), 13 to 15 days
# How it was run: as §2
# [13] = system: windgrass (Apera spica-venti); assay: Test B postemergence plant response; conditions: Postemergence
# How it was run: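 Plants grown in peat/vermiculite medium were sprayed postemergence at 2–18 cm height (1- to 4-leaf stage). After 13–15 days in the greenhouse, response was rated visually against untreated controls on a 0–100 scale (0 no effect, 100 complete control).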
# [14] = Postemergence, 125 g ai/ha, 0 to 100 scale where 0 is no effect and 100 is complete control
# [15] = Postemergence, 500 g ai/ha, visual injury, 0 to 100 scale (0 no effect, 100 complete control), approx. ten days
# [16] = Preemergence, 125 g ai/ha, 0 to 100 scale where 0 is no effect and 100 is complete control, approximately ten days
# [17] = Preemergence, 500 g ai/ha, 0 to 100 scale, 0 = no effect, 100 = complete control
# [18] = Postemergence, 125 g ai/ha, visual injury, 0 to 100 scale (0 no effect, 100 complete control), approx. ten days
# [19] = 250 g ai/ha, flooded paddy test, visual rating on 0 to 100 scale (0 no effect, 100 complete control) after 13 to 15 days
# [20] = 62 g ai/ha, scale of 0 to 100 where 0 is no effect and 100 is complete control
# [21] = 125 g ai/ha, scale 0 to 100, 0 is no effect, 100 is complete control
# [22] = Flood, 31 g ai/ha, scale 0 to 100 (0 no effect, 100 complete control)
smiles,measurement,setting,value
COCCCn1c(-c2cc(F)cc(F)c2)ncc(C(=O)C2=C(O)C3CCC(C3)C2=O)c1=O (stereo not shown) [Compound 244],"Plant response rating, Barnyardgrass",[1]; [14],90
same,Barnyardgrass plant response rating,[1]; [15],100
same,"Plant response rating, Barnyardgrass",[1]; [16],30
same,"Plant response rating, Barnyardgrass",[1]; [17],100
same,"Plant response rating, Velvetleaf",[2]; [18],100
same,Velvetleaf plant response rating,[2]; [15],100
same,"Plant response rating, Velvetleaf",[2]; [16],50
same,"Plant response rating, Velvetleaf",[2]; [17],100
same,"Plant response rating, Foxtail, Giant",[3]; [18],90
same,"Foxtail, Giant plant response rating",[3]; [15],90
same,"Plant response rating, Foxtail, Giant",[3]; [16],70
same,"Plant response rating, Foxtail, Giant",[3]; [17],100
same,"Plant response rating, Wheat",[4]; [18],40
same,Wheat plant response rating,[4]; [15],70
same,"Plant response rating, Wheat",[4]; [16],0
same,"Plant response rating, Wheat",[4]; [17],40
same,"Plant response rating, Pigweed",[5]; [18],100
same,Pigweed plant response rating,[5]; [15],100
same,"Plant response rating, Pigweed",[5]; [16],100
same,"Plant response rating, Pigweed",[5]; [17],100
same,"Plant response rating, Corn",[6]; [14],40
same,Corn plant response rating,[6]; [15],80
same,"Plant response rating, Corn",[6]; [16],20
same,"Plant response rating, Corn",[6]; [17],40
same,"Plant response rating, Crabgrass, Large",[7]; [14],90
same,"Crabgrass, Large plant response rating",[7]; [15],90
same,"Plant response rating, Crabgrass, Large",[7]; [16],90
same,"Plant response rating, Crabgrass, Large",[7]; [17],100
same,"Plant response rating, Morningglory",[8]; [18],100
same,Morningglory plant response rating,[8]; [15],100
same,"Plant response rating, Morningglory",[8]; [16],30
same,"Plant response rating, Morningglory",[8]; [17],80
same,"Plant response rating, Flood, Rice",[9]; [19],85
same,"Plant response rating, Rice",[9]; [20],0
same,"Plant response rating, Rice",[9]; [21],60
same,Rice plant response rating,[9]; [22],0
same,"Plant response rating, Flood, Barnyardgrass",[10]; [19],75
same,"Plant response rating, Barnyardgrass",[10]; [20],20
same,"Plant response rating, Barnyardgrass",[10]; [21],40
same,Barnyardgrass plant response rating,[10]; [22],0
same,"Plant response rating, Flood, Ducksalad",[11]; [19],100
same,"Plant response rating, Ducksalad",[11]; [20],80
same,"Plant response rating, Ducksalad",[11]; [21],100
same,Ducksalad plant response rating,[11]; [22],35
same,"Plant response rating, Flood, Sedge, Umbrella",[12]; [19],100
same,"Plant response rating, Sedge, Umbrella",[12]; [20],0
same,"Plant response rating, Sedge, Umbrella",[12]; [21],100
same,"Sedge, Umbrella plant response rating",[12]; [22],0
same,"Plant response rating, Windgrass","[13]; 31 g ai/ha, 0 to 100 scale (0 no effect, 100 complete control)",50
same,"Plant response rating, Windgrass","[13]; 125 g ai/ha, scale 0 (no effect) to 100 (complete control), 13 to 15 days",80
same,"Plant response rating, Windgrass","[13]; 250 g ai/ha, scale 0 to 100 (0 no effect, 100 complete control), 13 to 15 days",95
same,"Plant response rating, Windgrass","[13]; 62 g ai/ha, scale 0 to 100 (0 no effect, 100 complete control)",70
